Reference: US20240424426A1, “SOLVENTS FOR SELECTIVE COMPLEXATION OF METAL CATIONS” (THE BOARD OF TRUSTEES OF THE UNIVERSITY OF ALABAMA, priority 2023, published 2024)

Experiments:
[1] = Liquid-liquid extraction of Li^+ from aqueous LiCl/NaCl solution, ion-selective electrode analysis; settings: 3 mL neat compound mixed with 3 mL aqueous solution containing 100 ppm LiCl and 100 ppm NaCl; aqueous phase analyzed by ion-selective electrode
Experimental: (§1) 3 ml of the compound [F·Me·Me] was added neat to 3 mL of an aqueous solution containing 100 ppm LiCl and 100 ppm NaCl. After vigorous mixing of the organic and aqueous phases in a separatory funnel, the phases were separated, and the aqueous phase was analyzed using ion-selective electrodes for both Li^+ and Na^+.

[2] = Liquid-liquid extraction of Na^+ from aqueous LiCl/NaCl solution, ion-selective electrode analysis; settings: 3 mL neat compound mixed with 3 mL aqueous solution containing 100 ppm LiCl and 100 ppm NaCl; aqueous phase analyzed by ion-selective electrode
Experimental: as §1

COCCOCC(COCC(F)(F)F)OCCOC (centres unmarked) [[F·Me·Me]]
Li^+ extracted by the compound [1]: 26.6%
Na^+ extracted by the compound [2]: 7.3%
